This is an account of results in US8344118B2, “Preparation and isolation of 5′ capped MRNA” (Applied Biosystems, LLC, priority 2007, dated 2013).

One experiment concerns the target T7 RNA polymerase (Escherichia phage T7, UniProt P00573). Particulars: linearized pTri β actin vector template, 37° C. for 2 hr, 20% dPAGE gel, FIG. 9.
Experiment [1] deals with phage RNA polymerase such as T7, T3 or SP6. Conditions: m^7GpppG to GTP (4:1); cited from earlier work.

The structures appear in SMILES notation.

T7 RNA polymerase, sequence (P00573 whole entry): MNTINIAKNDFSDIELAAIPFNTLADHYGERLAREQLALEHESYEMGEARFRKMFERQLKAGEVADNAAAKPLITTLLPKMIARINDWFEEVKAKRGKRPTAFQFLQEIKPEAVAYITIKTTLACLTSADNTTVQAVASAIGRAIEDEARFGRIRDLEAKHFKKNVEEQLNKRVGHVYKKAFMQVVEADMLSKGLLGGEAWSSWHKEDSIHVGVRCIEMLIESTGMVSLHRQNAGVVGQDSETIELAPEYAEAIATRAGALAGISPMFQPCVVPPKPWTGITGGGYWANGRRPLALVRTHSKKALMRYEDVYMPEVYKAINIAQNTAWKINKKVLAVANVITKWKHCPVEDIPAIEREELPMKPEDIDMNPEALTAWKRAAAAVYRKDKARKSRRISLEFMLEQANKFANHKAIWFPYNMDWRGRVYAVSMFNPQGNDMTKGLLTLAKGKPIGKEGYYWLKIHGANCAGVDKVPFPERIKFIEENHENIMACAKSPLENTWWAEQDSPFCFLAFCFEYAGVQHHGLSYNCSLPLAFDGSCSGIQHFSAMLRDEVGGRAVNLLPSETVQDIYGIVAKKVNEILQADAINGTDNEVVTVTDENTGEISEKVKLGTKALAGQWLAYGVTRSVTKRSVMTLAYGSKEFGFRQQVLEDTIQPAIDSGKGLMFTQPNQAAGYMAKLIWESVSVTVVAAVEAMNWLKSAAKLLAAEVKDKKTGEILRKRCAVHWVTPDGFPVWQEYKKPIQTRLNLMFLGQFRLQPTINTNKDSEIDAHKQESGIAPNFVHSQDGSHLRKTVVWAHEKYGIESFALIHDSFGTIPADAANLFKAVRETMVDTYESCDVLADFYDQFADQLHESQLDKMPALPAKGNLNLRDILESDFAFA
Description for T7 RNA polymerase: A Gel Shift assay was performed by using the MAXIscript™ kit (Ambion, Inc.) following the manufacturer's protocol. The assay determines if the modified cap analogs were substrates for T7 RNA polymerase. Typical 20 μL of T7 RNA polymerase transcriptions contained the following reagents at the final concentrations indicated: linearized pTri β actin vector template, 0.5 μg; ATP, 2 mmol; GTP, 0.4 mmol; 1.6 mmol each CTP and UTP, in a separate reaction; 10× reaction buffer, 4×; T7 RNA polymerase, 50 units/μL; (α-^32P) ATP, 800 (Ci/mmol); and DEPC water. The control reaction was a normal in vitro transcription reaction, in which no cap analog was added. The transcription reactions were incubated at 37° C. for 2 hr, after which the reaction mixtures were then applied to a 20% dPAGE gel. The assay detects specific structure or size changes described as gel shifts. When structure change or size change occurs it creates complexes that migrate slower during gel electrophoresis than the original complex.

Turning to `NCC=Cc1cn(C2OC(COP(=O)(O)OP(=O)(O)OP(=O)(O)OP(=O)(O)OCC3OC(n4cnc5c(=O)[nH]c(N)nc54)C(O)C3O)C(O)C2O)c(=O)[nH]c1=O` (centres unmarked) [Compound 1, G[5′]pppp[5′]U-Aminoallyl], the “capped RNA” value at T7 RNA polymerase is “about 65%”. Consider `Cn1c[n+]([C@@H]2O[C@H](COP(=O)(O)OP(=O)(O)OP(=O)(O)OC[C@H]3O[C@@H](n4cnc5c(=O)[nH]c(N)nc54)[C@H](O)[C@@H]3O)[C@@H](O)[C@H]2O)c2nc(N)[nH]c(=O)c21` [m^7GpppG, m^7G(5′)ppp(5′)G], for which the “capped RNA” value in experiment [1] is recorded as 80%.
